Measurements published in patent publication US12435084B2, “Indazole derivatives as inhibitors of SARM1” (Disarm Therapeutics, Inc., priority 2020, dated 2025).

Target: T1, SARM1 (Homo sapiens, UniProt Q6SZW1)
T1 construct: made in house; host or cells: NRK1-HEK293T cells, transient transfection; cleared cell lysate used without purification
T1 sequence (Q6SZW1 with tags, fused parts or gaps): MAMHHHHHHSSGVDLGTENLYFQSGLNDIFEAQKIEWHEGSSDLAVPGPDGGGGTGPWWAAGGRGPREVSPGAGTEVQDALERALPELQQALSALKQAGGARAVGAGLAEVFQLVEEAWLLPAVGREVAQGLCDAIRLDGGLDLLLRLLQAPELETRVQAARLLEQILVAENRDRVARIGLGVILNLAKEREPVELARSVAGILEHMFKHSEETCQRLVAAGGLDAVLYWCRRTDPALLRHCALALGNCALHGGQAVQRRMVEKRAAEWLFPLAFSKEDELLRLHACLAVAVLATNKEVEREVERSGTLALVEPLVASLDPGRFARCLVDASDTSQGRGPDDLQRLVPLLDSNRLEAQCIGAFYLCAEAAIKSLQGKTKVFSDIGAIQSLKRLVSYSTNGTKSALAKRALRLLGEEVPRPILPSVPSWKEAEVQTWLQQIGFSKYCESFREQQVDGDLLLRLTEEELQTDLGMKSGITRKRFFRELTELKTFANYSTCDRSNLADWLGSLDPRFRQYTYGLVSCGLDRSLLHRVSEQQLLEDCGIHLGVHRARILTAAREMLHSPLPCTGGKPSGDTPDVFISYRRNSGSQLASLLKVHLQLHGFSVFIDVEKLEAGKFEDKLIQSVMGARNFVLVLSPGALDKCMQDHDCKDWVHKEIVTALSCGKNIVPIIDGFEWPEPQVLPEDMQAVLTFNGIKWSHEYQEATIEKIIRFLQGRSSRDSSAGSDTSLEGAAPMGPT
Experiment: ARM-SAM-TIR SARM1 IC50 assay (NADase activity, NAD+ cleavage, RapidFire mass spectrometry)
Assay type: biochemical
Conditions: ARM-SAM-TIR lysate 5 μg/mL, 2 h pre-incubation with compound at room temperature, 5 μM NAD+, 2 hr incubation
Protocol: This Example describes an assay of ARM-SAM-TIR NADase activity and use of this assay to measure the efficacy of compounds of Formula I/II to block SARM1 mediated NAD+ cleavage. This assay was optimized in such a way as to characterize the efficacy of the compounds in Formula I/I to inhibit SARM1 activity and to calculate an IC50 value for each compound. This assay makes use of full length SARM1, which encompasses the ARM, SAM and TIR domains. […] NRK1-HEK293T cells were seeded onto 150 cm^2 plates at 20×10^6 cells per plate. The next day, the cells were transfected with […] ARM-SAM-TIR expression plasmid, SEQ ID NO: 1. The cultures were supplemented with 1 mM NR at time of transfection to minimize toxicity from ARM-SAM-TIR overexpression. Forty-eight hours after transfection, cells were harvested, pelleted by centrifugation at 1,000 rpm (Sorvall ST 16R centrifuge, Thermo Fisher), and washed once with cold PBS (0.01 M phosphate buffered saline NaCl 0.138 M; KCl 0.0027 M; pH 7.4). The cells were resuspended in PBS with protease inhibitors (cOmplete™ protease inhibitor cocktail, Roche product #11873580001) and cell lysates were prepared by sonication (Branson Sonifer 450, output=3, 20 episodes of stroke). The lysates were centrifuged (12,000×g for 10 min at 4° C.) to remove cell debris and the supernatants (containing ARM-SAM-TIR protein) were stored at −80° C. for later use in the in vitro ARM-SAM-TIR NADase assay (see below). Protein concentration was determined by the Bicinchoninic (BCA) method and used to normalize lysate concentrations. The enzymatic assay was performed in a 384-well polypropylene plate in Dulbecco's PBS buffer in a final assay volume of 20 μL. […] The reaction was initiated by addition of 5 μM final assay concentration of NAD+ as substrate. After a 2 hr room temperature incubation, the reaction was terminated with 40 μL of stop solution of 7.5% trichloroactetic acid in acetonitrile. The NAD+ and ADPR concentrations were analyzed by a RapidFire High Throughput Mass Spectrometry System (Agilent Technologies, Santa Clara, CA) using an API4000 triple quadrupole mass spectrometer (AB Sciex Framingham, MA).

Row | Structure (SMILES) | IC50 [nM]
1 | O=C(NCc1ccc(Cl)cc1)c1cccc2c(-c3cnco3)n[nH]c12 [Example 21] | > 10000
2 | Cn1cncc1-c1n[nH]c2c(C(=O)NCc3ccc(Cl)cc3)cccc12 [Example 20] | > 10000
3 | O=C(NCc1ccc(Cl)cc1)c1cccc2c(-c3cncs3)n[nH]c12 [Example 19] | > 10000
4 | O=C(NCc1ccc(Cl)cc1)c1cccc2c(-c3cnc[nH]3)n[nH]c12 [Example 18] | > 10000
5 | Cc1ccc(C(=O)NCc2ccc(Cl)nc2)c2[nH]nc(-c3ccncc3)c12 [Example 24] | 1010 to 5000

Next, values leading:

Row | IC50 [nM] | Structure (SMILES)
6 | 100 to 1000 | C[C@@H](NC(=O)c1cccc2c(-c3ccncc3)n[nH]c12)c1ccc(Cl)cc1 [Example 15]
7 | < 100 | O=C(NCc1ccc(Cl)cc1)c1nccc2c(-c3ccncc3)n[nH]c12 [Example 14]
8 | < 100 | O=C(NCc1ccc(Cl)c(F)c1)c1cccc2c(-c3ccncc3)n[nH]c12 [Example 16]
9 | < 100 | O=C(NCc1ccc(Cl)s1)c1cccc2c(-c3ccncc3)n[nH]c12 [Example 17]
10 | 100 to 1000 | Cc1cc(C(=O)NCc2ccc(Cl)nc2)c2[nH]nc(-c3ccncc3)c2c1 [Example 25]
